# Measurements reported in US4849345A, “L-phenylalanine dehydrogenase and use thereof” (priority 1985, dated 1989).
# Read-outs that look alike come from different tables or passages of the source.
# Legend:
# Format in all cases: biochemical
# [1] = biological target: T1, L-phenylalanine dehydrogenase produced by Sporosarcina ureae SCRC-R04 (Sporosarcina ureae, UniProt P97014); test: Substrate and coenzyme specificity, oxidative deamination (Sporosarcina enzyme); conditions: oxidative deamination; for activity at 10000 µM: substrate concentration 10 mM, L-phenylalanine = 100
# T1 sequence (P97014 1-379): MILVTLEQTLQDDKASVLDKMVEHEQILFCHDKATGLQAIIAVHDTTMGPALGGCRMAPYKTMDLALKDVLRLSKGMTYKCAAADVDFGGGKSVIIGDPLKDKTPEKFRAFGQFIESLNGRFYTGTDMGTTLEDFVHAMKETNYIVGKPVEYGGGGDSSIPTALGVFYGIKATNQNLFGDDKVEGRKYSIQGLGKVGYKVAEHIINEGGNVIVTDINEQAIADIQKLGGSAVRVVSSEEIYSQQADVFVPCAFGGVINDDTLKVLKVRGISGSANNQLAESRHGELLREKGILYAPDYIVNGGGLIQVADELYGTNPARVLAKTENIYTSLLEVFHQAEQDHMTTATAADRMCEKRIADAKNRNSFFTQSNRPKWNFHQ
# Experimental: The substrate concentration is 10 mM, except for the L-tyrosine concentration which is 1.4 mM.
# [2] = biological target: T1, L-phenylalanine dehydrogenase produced by Sporosarcina ureae SCRC-R04; test: biochemical; conditions: for activity at 1000 µM: read-out: Relative activity
# [3] = biological target: T2, L-phenylalanine dehydrogenase produced by Bacillus sp. SCRC-R79a (Lysinibacillus sphaericus, UniProt P23307); test: Effect of metal ions and inhibitors on enzyme activity (Bacillus enzyme); parameters: inoculated with Bacillus sp; endogenous in cells; host or cells: Bacillus sp; enzyme purified in house; conditions: for activity at 1000 µM: read-out: Relative activity
# T2 sequence (P23307 1-381): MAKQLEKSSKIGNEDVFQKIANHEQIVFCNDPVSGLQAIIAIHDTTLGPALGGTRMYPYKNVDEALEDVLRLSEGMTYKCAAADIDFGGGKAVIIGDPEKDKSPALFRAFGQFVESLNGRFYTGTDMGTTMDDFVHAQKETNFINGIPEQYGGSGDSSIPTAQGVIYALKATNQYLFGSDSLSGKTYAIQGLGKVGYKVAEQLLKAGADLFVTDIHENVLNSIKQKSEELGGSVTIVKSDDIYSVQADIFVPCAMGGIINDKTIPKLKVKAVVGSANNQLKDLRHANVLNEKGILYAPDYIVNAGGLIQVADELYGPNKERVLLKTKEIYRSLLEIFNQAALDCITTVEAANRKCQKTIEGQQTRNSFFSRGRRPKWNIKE
# Experimental: Unless otherwise described, the concentration of metal cations and inhibitors is 1 mM.
# [4] = biological target: T2, L-phenylalanine dehydrogenase produced by Bacillus sp. SCRC-R79a; test: Substrate and coenzyme specificity, oxidative deamination (Bacillus enzyme); parameters: inoculated with Bacillus sp; endogenous in cells; host or cells: Bacillus sp; enzyme purified in house
# Experimental: The substrate concentration is 10 mM except for the L-tyrosine concentration which is 1.4 mM.
# [5] = 1 mM, not added = 100, listed as Fe^3+, 1000 µM
# [6] = read-out: Relative activity (%)
# [7] = oxidative deamination, substrate concentration 10 mM, L-phenylalanine = 100, read-out: Relative activity (%)
structure (smiles),measurement,setting,value
NC(C(=O)O)c1ccccc1 (racemic) [DL-phenylglycine],action of the enzyme on the amino acid as substrate (in words),[1],cannot serve as a substrate
"O=C(O)c1cc(SSc2ccc([N+](=O)[O-])c(C(=O)O)c2)ccc1[N+](=O)[O-] [5,5'-Dithio-bis(2-nitrobenzoic acid)]",effect on enzyme activity (in words),[2],inhibited
same,activity at 1000 µM,"[2]; 1 mM, not added = 100",0%
same,activity at 1000 µM,"[3]; 1 mM, not added = 100",74%
Oc1cccc2cccnc12 [8-Oxyquinoline],Relative activity,[2]; 1000 µM,101
same,Relative activity,[3]; 1000 µM,96
[Ag+] [Ag^+],effect on enzyme activity (in words),[2],inhibited
same,Relative activity,"[2]; 1 mM, not added = 100",0%
same,effect on enzyme activity (in words),[3],inhibited
same,Relative activity,"[3]; 1 mM, not added = 100",0%
[Al+3] [Al^3+],Relative activity,"[2]; 1 mM, not added = 100",153%
same,Relative activity,"[3]; 1 mM, not added = 100",99%
[Ba+2] [Ba^2+],Relative activity,"[2]; 1 mM, not added = 100",106%
same,Relative activity,"[3]; 1 mM, not added = 100",93%
[Ca+2] [Ca^2+],Relative activity,"[2]; 1 mM, not added = 100",100%
same,Relative activity,"[3]; 1 mM, not added = 100",92%
[Cd+2] [Cd^2+],Relative activity,"[2]; 1 mM, not added = 100",70%
same,Relative activity,"[3]; 1 mM, not added = 100",102%
[Cu+2] [Cu^2+],Relative activity,"[2]; 1 mM, not added = 100",91%
same,Relative activity,"[3]; 1 mM, not added = 100",85%
N[C@H](Cc1ccccc1)C(=O)O [D-phenylalanine],action of the enzyme on the amino acid as substrate (in words),[1],cannot serve as a substrate
same,action of the enzyme on the amino acid as substrate (in words),[4]; oxidative deamination,cannot serve as a substrate
O=C(O)CN(CCN(CC(=O)O)CC(=O)O)CC(=O)O [EDTA],activity at 1000 µM,[2],119%
same,activity at 1000 µM,[3],120%
[Fe+2] [Fe^2+],Relative activity,"[2]; 1 mM, not added = 100, 1000 µM",127%
same,Relative activity,[2]; [5],161%
same,Relative activity,"[3]; 1 mM, not added = 100, 1000 µM",116%
same,Relative activity,[3]; [5],117%
[Hg+2] [Hg^2+],effect on enzyme activity (in words),[2],inhibited
same,Relative activity,"[2]; 0.01 mM, not added = 100",0%
same,effect on enzyme activity (in words),[3],inhibited
same,Relative activity,"[3]; 0.01 mM, not added = 100",38%
NO [Hydroxylamine],Relative activity,"[2]; 10 mM, not added = 100",173%
same,Relative activity,"[3]; 10 mM, not added = 100",90%
O=C(O)CI [Iodoacetic acid],activity at 1000 µM,[2],91%
same,activity at 1000 µM,[3],127%
"CCSCC[C@H](N)C(=O)O [L--Ethionine, L-ethionine]",activity at 10000 µM,[1]; [6],7%
same,activity at 10000 µM,[4]; [6],3.1%
"CC[C@H](C)[C@H](N)C(=O)O [L--Isoleucine, L-isoleucine]",activity at 10000 µM,[1]; [6],0.54%
same,action of the enzyme on the amino acid as substrate (in words),[4]; oxidative deamination,cannot serve as a substrate
"CC(C)C[C@H](N)C(=O)O [L--Leucine, L-leucine]",activity at 10000 µM,[1]; [6],2.3%
same,action of the enzyme on the amino acid as substrate (in words),[4]; oxidative deamination,cannot serve as a substrate
"CSCC[C@H](N)C(=O)O [L--Methionine, L-methionine]",action of the enzyme on the amino acid as substrate (in words),[1],act very weakly
same,activity at 10000 µM,[1]; [6],4.1%
same,action of the enzyme on the amino acid as substrate (in words),[4]; oxidative deamination,acting very weakly
same,activity at 10000 µM,[4]; [6],3%
"CCCC[C@H](N)C(=O)O [L--Norleucine, L-norleucine]",activity at 10000 µM,[1]; [6],15%
same,activity at 10000 µM,[4]; [7],3.9%
"CCC[C@H](N)C(=O)O [L--Norvaline, L-norvaline]",activity at 10000 µM,[1]; [6],6.3%
same,activity at 10000 µM,[4]; [7],1.3%
"N[C@@H](Cc1ccccc1)C(=O)O [L--Phenylalanine, L-phenylalanine]",action of the enzyme on the amino acid as substrate (in words),[1],acting strongly
same,activity at 10000 µM,[1]; [6],100%
same,action of the enzyme on the amino acid as substrate (in words),[4]; oxidative deamination,acting strongly
same,activity at 10000 µM,[4]; [7],100%
"N[C@@H](Cc1c[nH]c2ccccc12)C(=O)O [L--Tryptophan, L-tryptophan]",action of the enzyme on the amino acid as substrate (in words),[1],act very weakly
same,activity at 10000 µM,[1]; [6],6.8%
same,action of the enzyme on the amino acid as substrate (in words),[4]; oxidative deamination,acting very weakly
same,activity at 10000 µM,[4]; [7],1.6%
"N[C@@H](Cc1ccc(O)cc1)C(=O)O [L--Tyrosine, L-tyrosine]",action of the enzyme on the amino acid as substrate (in words),[1],act very weakly
same,activity at 1400 µM,"[1]; substrate concentration 1.4 mM, read-out: Relative activity (%)",5.4%
same,action of the enzyme on the amino acid as substrate (in words),[4]; oxidative deamination,acting strongly
same,activity at 1400 µM,[4]; [6],72%
"CC(C)[C@H](N)C(=O)O [L--Valine, L-valine]",activity at 10000 µM,[1]; [6],3.1%
same,action of the enzyme on the amino acid as substrate (in words),[4]; oxidative deamination,cannot serve as a substrate
C[C@H](N)C(=O)O [L-alanine],action of the enzyme on the amino acid as substrate (in words),[1],cannot serve as a substrate
same,action of the enzyme on the amino acid as substrate (in words),[4]; oxidative deamination,cannot serve as a substrate
N=C(N)NCCC[C@H](N)C(=O)O [L-arginine],action of the enzyme on the amino acid as substrate (in words),[1],cannot serve as a substrate
same,action of the enzyme on the amino acid as substrate (in words),[4]; oxidative deamination,cannot serve as a substrate
NC(=O)C[C@H](N)C(=O)O [L-asparagine],action of the enzyme on the amino acid as substrate (in words),[1],cannot serve as a substrate
same,action of the enzyme on the amino acid as substrate (in words),[4]; oxidative deamination,cannot serve as a substrate
N[C@@H](CC(=O)O)C(=O)O [L-aspartic acid],action of the enzyme on the amino acid as substrate (in words),[1],cannot serve as a substrate
same,action of the enzyme on the amino acid as substrate (in words),[4]; oxidative deamination,cannot serve as a substrate
N[C@@H](CS)C(=O)O [L-cysteine],action of the enzyme on the amino acid as substrate (in words),[1],cannot serve as a substrate
same,action of the enzyme on the amino acid as substrate (in words),[4]; oxidative deamination,cannot serve as a substrate
N[C@@H](CCC(=O)O)C(=O)O [L-glutamic acid],action of the enzyme on the amino acid as substrate (in words),[1],cannot serve as a substrate
same,action of the enzyme on the amino acid as substrate (in words),[4]; oxidative deamination,cannot serve as a substrate
NC(=O)CC[C@H](N)C(=O)O [L-glutamine],action of the enzyme on the amino acid as substrate (in words),[1],cannot serve as a substrate
same,action of the enzyme on the amino acid as substrate (in words),[4]; oxidative deamination,cannot serve as a substrate
N[C@@H](Cc1c[nH]cn1)C(=O)O [L-histidine],action of the enzyme on the amino acid as substrate (in words),[1],cannot serve as a substrate
same,action of the enzyme on the amino acid as substrate (in words),[4]; oxidative deamination,cannot serve as a substrate
NCCCC[C@H](N)C(=O)O [L-lysine],action of the enzyme on the amino acid as substrate (in words),[1],cannot serve as a substrate
same,action of the enzyme on the amino acid as substrate (in words),[4]; oxidative deamination,cannot serve as a substrate
O=C(O)[C@@H]1CCCN1 [L-proline],action of the enzyme on the amino acid as substrate (in words),[1],cannot serve as a substrate
same,action of the enzyme on the amino acid as substrate (in words),[4]; oxidative deamination,cannot serve as a substrate
N[C@@H](CO)C(=O)O [L-serine],action of the enzyme on the amino acid as substrate (in words),[1],cannot serve as a substrate
same,action of the enzyme on the amino acid as substrate (in words),[4]; oxidative deamination,cannot serve as a substrate
C[C@@H](O)[C@H](N)C(=O)O [L-threonine],action of the enzyme on the amino acid as substrate (in words),[1],cannot serve as a substrate
same,action of the enzyme on the amino acid as substrate (in words),[4]; oxidative deamination,cannot serve as a substrate
CC[C@H](N)C(=O)O [L-α-amino-n-butyric acid],action of the enzyme on the amino acid as substrate (in words),[4]; oxidative deamination,cannot serve as a substrate
[Li+] [Li^+],Relative activity,"[2]; 1 mM, not added = 100",96%
same,Relative activity,"[3]; 1 mM, not added = 100",95%
[Mg+2] [Mg^2+],Relative activity,"[2]; 1 mM, not added = 100",90%
same,Relative activity,"[3]; 1 mM, not added = 100",99%
[Mn+2] [Mn^2+],Relative activity,"[2]; 1 mM, not added = 100",129%
same,Relative activity,"[3]; 1 mM, not added = 100",95%
"CCN1C(=O)C=CC1=O [N--Ethylmaleimide, N-ethylmaleimide]",effect on enzyme activity (in words),[2],inhibited
same,activity at 1000 µM,"[2]; 1 mM, not added = 100",21%
same,activity at 1000 µM,"[3]; 1 mM, not added = 100",162%
[N-]=[N+]=[N-].[Na+] [NaN3],Relative activity,"[2]; 1 mM, not added = 100",100%
same,Relative activity,"[3]; 1 mM, not added = 100",102%
[Na+] [Na^+],Relative activity,"[2]; 1 mM, not added = 100",92%
same,Relative activity,"[3]; 1 mM, not added = 100",93%
[Ni+2] [Ni^2+],Relative activity,"[2]; 1 mM, not added = 100",100%
same,Relative activity,"[3]; 1 mM, not added = 100",100%
O=C(O)c1cc[c]([Hg][Cl])cc1 [PCMB],effect on enzyme activity (in words),[2],inhibited
same,Relative activity,"[2]; 0.2 mM, not added = 100",0%
same,effect on enzyme activity (in words),[3],inhibited
same,Relative activity,"[3]; 0.2 mM, not added = 100",0%
[Pb+2] [Pb^2+],Relative activity,"[2]; 1 mM, not added = 100",81%
same,Relative activity,"[3]; 1 mM, not added = 100",53%
[Sn+2] [Sn^2+],Relative activity,"[2]; 0.5 mM, not added = 100",123%
same,Relative activity,"[3]; 0.5 mM, not added = 100",110%
[Zn+2] [Zn^2+],Relative activity,"[2]; 1 mM, not added = 100",99%
same,Relative activity,"[3]; 1 mM, not added = 100",96%
c1cnc2c(c1)ccc1cccnc12 [o-Phenanthroline],activity at 1000 µM,"[2]; 1 mM, not added = 100",103%
same,activity at 1000 µM,"[3]; 1 mM, not added = 100",99%
"c1ccc(-c2ccccn2)nc1 [α,α'-Dipyridyl]",activity at 1000 µM,"[2]; 1 mM, not added = 100",124%
same,activity at 1000 µM,"[3]; 1 mM, not added = 100",104%
